PubChem BioAssay (NCI)
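Following 48 hours of exposure in 96-well plates, responses at five concentrations were used to interpolate endpoints linearly. Abbreviation: GI50, concentration required for 50% inhibition of growth. TGI: total growth inhibition.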

Tests used:
Test in all cases: NCI anticancer screen, dose series, 48 h
[1] = tested on: HCT-116 colon
[2] = tested on: SF-539 CNS
[3] = tested on: M14 melanoma
[4] = tested on: EKVX NSCLC
[5] = tested on: OVCAR-8 ovarian
[6] = tested on: HOP-92 NSCLC
[7] = tested on: IGROV1 ovarian
[8] = tested on: RXF 393 renal
[9] = tested on: T-47D breast
[10] = tested on: MCF7 breast

SMILES: CN1CCCC2(CCCc3ccccc32)C1 (configuration not stated)
- TGI [1]: > 100 µM
- TGI [2]: > 100 µM
- TGI [3]: > 100 µM
- TGI [4]: > 100 µM
- TGI [5]: > 100 µM
- TGI [6]: > 100 µM
- TGI [7]: > 100 µM

SMILES: CN(C)CC(C)(C)C(=O)/C=C/c1ccc(/C=C/C(=O)C(C)(C)CN(C)C)cc1
- TGI [1]: 2.55 µM
- TGI [2]: 3.81 µM
- TGI [3]: 3.21 µM
- TGI [4]: 3.26 µM
- TGI [5]: 6.71 µM
- TGI [6]: 2.22 µM
- TGI [8]: 2.66 µM
- TGI [7]: 3.33 µM

SMILES: COc1ccc2c(CN3CCCCC3CO)cc3cc(OC)c(OC)cc3c2c1 (configuration not stated)
- TGI [1]: 13.7 µM
- TGI [2]: 15 µM
- TGI [3]: 25 µM
- TGI [4]: 19.7 µM
- TGI [5]: 19.9 µM
- TGI [6]: 9.82 µM
- TGI [8]: 18 µM
- TGI [7]: 61.1 µM

SMILES: [Cl-].[O-]/N=C(\c1ccccc1)c1ccccn1.[O-]/N=C(\c1ccccc1)c1ccccn1.[O-]/N=C(\c1ccccc1)c1ccccn1.[Sm+3]
- GI50 [1]: 41.2 µM
- TGI [1]: > 100 µM
- GI50 [2]: 28.1 µM
- TGI [2]: 75.2 µM
- GI50 [3]: 19.6 µM
- TGI [3]: 40.6 µM
- GI50 [4]: 29.4 µM
- TGI [4]: > 100 µM
- GI50 [5]: 29.8 µM
- TGI [5]: > 100 µM
- GI50 [6]: 23.6 µM
- TGI [6]: 87.8 µM
- GI50 [7]: 27.8 µM
- TGI [7]: 79.6 µM

SMILES: COc1ccc(OC)c2c1CC(C(=O)O)(C(=O)O)CC2=O
- TGI [1]: > 100 µM
- TGI [3]: > 100 µM
- TGI [4]: > 100 µM
- TGI [6]: > 100 µM
- TGI [8]: > 100 µM
- TGI [7]: > 100 µM

SMILES: O=c1nc(/C=C/c2ccccc2Cl)cc2n1CCN2CCO
- TGI [1]: > 100 µM
- TGI [2]: > 100 µM
- TGI [3]: > 100 µM
- TGI [4]: > 100 µM
- TGI [5]: > 100 µM
- TGI [6]: > 100 µM
- TGI [8]: > 100 µM
- TGI [7]: > 100 µM

SMILES: O=C(CP(=O)(O)O)NC(CC(=O)OCc1ccccc1)C(=O)OCc1ccccc1 (configuration not stated)
- TGI [1]: > 100 µM
- TGI [2]: > 100 µM
- TGI [3]: > 100 µM
- TGI [4]: > 100 µM
- TGI [5]: > 100 µM
- TGI [9]: > 100 µM
- TGI [6]: > 100 µM
- TGI [8]: > 100 µM
- TGI [7]: > 100 µM

SMILES: Cc1[nH]c2ccccc2c1C(=O)CC1(O)C(=O)Nc2ccccc21 (configuration not stated)
- TGI [1]: > 100 µM
- TGI [2]: > 100 µM
- TGI [3]: > 100 µM
- TGI [4]: > 100 µM
- TGI [6]: > 100 µM
- TGI [8]: > 100 µM
- TGI [7]: > 100 µM

SMILES: COc1ccc2c(c1)N1CCc3cc(OC)c(OC)cc3C1C2 (configuration not stated)
- TGI [2]: > 100 µM
- TGI [4]: > 100 µM
- TGI [5]: > 100 µM
- TGI [6]: > 100 µM
- TGI [8]: > 100 µM
- TGI [7]: > 100 µM

SMILES: COC(=O)[C@@H](C)C[C@H](Cc1ccccc1)NC(=O)c1csc(CC[C@H](C(C)C)N(C)C(=O)[C@@H](NC(=O)[C@H]2CCCCN2C)C(C)C)n1
- GI50 [1]: 0.235 µM
- TGI [1]: > 14.8 µM
- GI50 [2]: 0.444 µM
- TGI [2]: 1.91 µM
- GI50 [10]: 0.078 µM
- TGI [10]: > 33.3 µM
- GI50 [3]: 0.262 µM
- TGI [3]: 1.52 µM
- GI50 [4]: 1.33 µM
- TGI [4]: > 33.3 µM
- GI50 [5]: 0.465 µM
- TGI [5]: > 33.3 µM
- GI50 [6]: 0.582 µM
- TGI [6]: > 26.9 µM
- GI50 [7]: 0.291 µM
- TGI [7]: > 33.3 µM

SMILES: CC(=O)[CH-]C(C)=O.CC(=O)[CH-]C(C)=O.[CH2-]CCC.[CH2-]CCC.[Sn+4]
- GI50 [1]: 0.65 µM
- TGI [1]: 1.96 µM
- GI50 [2]: 0.61 µM
- TGI [2]: 1.91 µM
- GI50 [3]: 0.608 µM
- TGI [3]: 1.86 µM
- GI50 [4]: 0.901 µM
- TGI [4]: 2.27 µM
- GI50 [5]: 0.788 µM
- TGI [5]: 2.05 µM
- GI50 [6]: 0.256 µM
- TGI [6]: 1.25 µM
- GI50 [8]: 0.0699 µM
- TGI [8]: 0.292 µM
- GI50 [7]: 1.23 µM
- TGI [7]: 2.66 µM

SMILES: CN(C)CC(C)(C)/C(=N\Nc1ccccc1)c1ccccc1
- TGI [1]: > 100 µM
- TGI [2]: 63.4 µM
- TGI [3]: 66.5 µM
- TGI [4]: > 100 µM
- TGI [5]: > 100 µM
- TGI [8]: > 100 µM
- TGI [7]: > 100 µM

SMILES: CCOC(=O)C1N(S(=O)(=O)c2ccc(C)cc2)CCC12c1ccccc1N(C(C)=O)C2c1ccc(OC)c(OC)c1 (configuration not stated)
- TGI [1]: > 100 µM
- TGI [2]: > 100 µM
- TGI [3]: > 100 µM
- TGI [4]: > 100 µM
- TGI [5]: > 100 µM
- TGI [6]: > 100 µM
- TGI [8]: > 100 µM
- TGI [7]: > 100 µM

SMILES: c1cc(N(CCn2cccn2)CCn2cccn2)cc(N(CCn2cccn2)CCn2cccn2)c1
- TGI [1]: > 100 µM
- TGI [3]: > 100 µM
- TGI [4]: > 100 µM
- TGI [5]: > 100 µM
- TGI [6]: > 100 µM
- TGI [8]: > 100 µM

SMILES: Fc1ccc2[nH]cc(-c3nonc3-c3c[nH]c4ccc(Br)cc34)c2c1
- GI50 [1]: 1.84 µM
- TGI [1]: 4.23 µM
- GI50 [2]: 2.15 µM
- TGI [2]: 5.27 µM
- GI50 [10]: 2.19 µM
- TGI [10]: 5.66 µM
- GI50 [3]: 1.87 µM
- TGI [3]: 4.98 µM
- GI50 [4]: 1.88 µM
- TGI [4]: 6.01 µM
- GI50 [5]: 3.38 µM
- TGI [5]: 17.5 µM
- GI50 [6]: 1.97 µM
- TGI [6]: 5.52 µM
- GI50 [8]: 2.85 µM
- TGI [8]: 8.75 µM
- GI50 [7]: 3.41 µM
- TGI [7]: 18.3 µM

SMILES: Nc1ccc(C2=NN(c3ccccc3)C(c3ccc(Cl)cc3)C2)cc1 (configuration not stated)
- GI50 [1]: 1.64 µM
- TGI [1]: 3.01 µM
- GI50 [2]: 1.93 µM
- TGI [2]: 4.21 µM
- GI50 [10]: 1.32 µM
- TGI [10]: 3.82 µM
- GI50 [3]: 2.35 µM
- TGI [3]: 5.34 µM
- GI50 [5]: 3.15 µM
- TGI [5]: 13.2 µM
- GI50 [9]: 2.06 µM
- TGI [9]: 4.48 µM
- GI50 [6]: 2.61 µM
- TGI [6]: 17.3 µM
- GI50 [8]: 1.55 µM
- TGI [8]: 3.12 µM
- GI50 [7]: 2.89 µM
- TGI [7]: 8.15 µM

SMILES: O=C1c2ccccc2C(Br)(Br)c2ccccc21
- TGI [1]: > 31.6 µM
- TGI [2]: > 100 µM
- TGI [3]: > 31.6 µM
- TGI [4]: > 100 µM
- TGI [5]: > 100 µM
- TGI [6]: > 100 µM
- TGI [8]: > 31.6 µM
- TGI [7]: > 31.6 µM

SMILES: Cc1ccc(S(=O)(=O)N/N=C(\c2nc3ccc(Cl)cc3[nH]c2=O)C(O)c2cccc([N+](=O)[O-])c2)cc1 (configuration not stated)
- TGI [1]: > 100 µM
- TGI [2]: > 100 µM
- TGI [3]: > 100 µM
- TGI [4]: > 100 µM
- TGI [5]: > 100 µM
- TGI [6]: > 100 µM
- TGI [8]: > 100 µM
- TGI [7]: > 100 µM

SMILES: COc1ccc(OC)c(/C(C)=N/NC(N)=S)c1
- TGI [1]: > 100 µM
- TGI [2]: > 100 µM
- TGI [3]: > 100 µM
- TGI [4]: > 100 µM
- TGI [5]: > 100 µM
- TGI [6]: > 100 µM
- TGI [8]: > 100 µM
- TGI [7]: > 100 µM

SMILES: C[N-]c1nnnn1C.[Au+].c1ccc([PH+](c2ccccc2)c2ccccc2)cc1
- GI50 [1]: 11.7 µM
- TGI [1]: 23.9 µM
- GI50 [2]: 2.38 µM
- TGI [2]: 7.39 µM
- GI50 [3]: 2.34 µM
- TGI [3]: 5.51 µM
- GI50 [4]: 4.32 µM
- TGI [4]: 8.99 µM
- GI50 [5]: 3.18 µM
- TGI [5]: 14.2 µM
- GI50 [6]: 2.67 µM
- TGI [6]: 5.42 µM
- GI50 [8]: 0.347 µM
- TGI [8]: 1.26 µM
- GI50 [7]: 2.76 µM
- TGI [7]: 9.99 µM

SMILES: Cc1sc2nc(-c3ccncc3)c(/C=N/N=C(N)N)n2c1C
- GI50 [1]: 27.7 µM
- TGI [1]: 81.8 µM
- GI50 [2]: 51.9 µM
- TGI [2]: > 100 µM
- GI50 [3]: 60.2 µM
- TGI [3]: > 100 µM
- GI50 [4]: 75.9 µM
- TGI [4]: > 100 µM
- GI50 [9]: 30.7 µM
- TGI [9]: > 100 µM
